In series [1] the test system is kidney of black mice. Briefly: Kidney cystine concentration after CDME injection (CBP and BCA assays). The class given is in vivo, mouse. On the procedure: Intracellular lysosomal free cystine was determined using a cystine binding protein (CBP) assay (Oshima et al, 1974 J. Biol. Chem., 249:6033-6039). CBP was procured from Riverside Scientific. The assay has a sensitivity of 0.1 μM. Total cell protein was determined by a modification of the Lowry method (Lowry O. et al 1951 J. Biol. Chem., 193:265-275). Statistical analyses were performed using paired t test for means with SSPS for Windows. Results are mean+/−1.0 SD (FIG. 3).
(§1) CDME was evaluated in mice for cystine generation in response to varying doses as follows: A stock solution of CDME in PBS was prepared having a concentrations of 1.8 g CDME/500 μL PBS. The stock solution was diluted to generate solutions for administration. 500 μL of diluted solutions were injected intraperitoneally into black mice (body mass ˜0.03 kg). All injections were performed in duplicate.
Following administration of the solutions of Table 6, the endogenous cystine concentrations in two organs (kidney and liver) were examined for the 6 mice, i.e., the CDME-injected mice as well as black, heterozygous, and wild-type control mice. The analysis was performed using the cystine binding protein CBP assay of Example 1 and the Bicinchoninic Acid BCA assay (Pierce Biotechnology) for total protein concentration.

Series [2] relates to black mice. Briefly: Toxicity study of CDME in mice. It is filed as in vivo, mouse. To be noted: intraperitoneal injection, 500 μL in PBS. On the procedure:
as §1
Mice given effective dosages of 5,000 mg CDME/kg body mass or higher died. […] The CDME-injected mice contained close to 100-fold increases in intralysosomal cystine.

In series [3] the test system is renal proximal tubule epithelial (RPTE) cells. Briefly: Time course of apoptosis, TUNEL (FIG. 3). The class given is cell-based, human. On the procedure:
FIG. 3 is a graph showing the effect of CDME on apoptosis in renal proximal tubule epithelial (RPTE) cells. Semi-confluent RPTE cells were treated with either 0.25 mM CDME or TNF-a, harvested at 0.5, 1, 3, and 6 hours, stained with TUNEL, and enumerated by fluorescence microscopy. Each experiment was done in triplicate. The control (time 0) cystine content was 0.6 nmol/mg protein. After 1 hour incubation, the cystine content was 2.2 nmol/mg protein.
2. TUNEL Assay • The TUNEL assay employs terminal deoxynucleotidyl transferase (TdT) to label the ends of double stranded DNA breaks, which occur in apoptotic cells, with FITC-conjugated dUTP. Cells were fixed in 4% buffered formalin, washed, incubated in permeabilization solution (0.1% Triton X-100 in 0.1% Na Citrate) for 2 minutes on ice and then stained with 25 μL of TdT/45 μL of labeled dNTP mix for 40 minutes at 37° C. The cells were visually enumerated by fluorescence microscopy, scoring a minimum of five fields (250 to 300 cells) for fluorescence in triplicate followed by counting all cells in the same field by light microscopy, with a minimum of 750 cells scored per condition. The apoptosis rate is the total number of cells that fluoresce divided by the total cells in the field. […]

Series [4] has as its system RPTE cells. The series is described as follows: Annexin V and propidium iodide staining. The class given is cell-based, human. The note with it: TNF-a after loading with 0.1 mM CDME. On the procedure: 3. The Annexin V Assay • Annexin V-propidium iodide (PI) staining was performed as described by the manufacturer (Annexin V Fluos kit directions, Roche Laboratories) one time after TNF-a stimulation. D. Cystine Binding Protein Assay
Lysosomal cystine loading of RPTE cells was accomplished by exposure to 0.1 mM or 0.25 CDME in normal REGM for 1 hour before treatment with or without apoptotic triggers.
Exposure of RPTE cells to TNF-a after cystine loading by exposure to 0.1 mM CDME and analysis by Annexin V and Propidium iodide staining yielded 4.3% Annexiv V positive cells and zero PI positive cells at 1 h after exposure, 9.5% and 1.7% at 3 hours and 25.3% and 9.1% at 6 hours. The proportion of necrotic RPTE cells increased with duration of exposure to CDME, but remained substantially less than the number of those that are apoptotic.

Series [5] concerns MDA-MB-231 (ER−). The series is described as follows: Apoptosis in breast cancer cell lines, CaspACE assay with flow cytometry. The note with it: CDME 500 μM, 16 hours. It is filed as cell-based, human. The text has this: (§2) The apoptotic effect of CDME was compared to that of tamoxifen using the CaspACE™ assay system (Promega) and conventional flow cytometry techniques.
(§3) All cell lines were obtained from the American Type Culture Collection, P.O. Box 1549, Manassas, Va., 20108 unless otherwise indicated. The cell lines studied were estrogen receptor-negative breast cancer cell lines MDA-MB-231 (ATCC Accession No. HTB-26) and MDA-MB-468 (ATCC Accession No. HTB-132) and estrogen receptor-positive breast cancer cell lines, MCF-7 (ATCC Accession No. HTB-22) and T-47D (ATCC Accession No. HTB-133).
(§4) All cell lines were grown on the bottom of 12-well flasks in Gibco RPMI-1640, until they reached the confluency of about 50%. After that, the medium was exchanged with DMEM (Sigma, D-5030), supplemented with 10% charcoal-treated FBS.
(§5) After four days (at confluency of about 75%), cells were treated by exposure to either CDME (500 μM) or tamoxifen (100 μM) or neither for 16 hours at 37° C. CaspACE™ assay analysis of the treated and control cells was performed as described in Example 2 and measured via flow cytometry. Note that the dosage of tamoxifen was a maximum positive control dose, higher than that normally administered for chemotherapy.

In series [6] the test system is T-47D (ER+). The description is as above. The note with it: CDME 500 μM, 16 hours. The class given is cell-based, human.
Excerpt: as §2, §3, §4, §5

In series [7] the test system is MDA-MB-468 (ER−). The description is as above. It is filed as cell-based, human. To be noted: CDME 500 μM, 16 hours.
Excerpt: as §2, §3, §4, §5

Series [8] has as its system MCF-7 (ER+). The series is described as above. The class given is cell-based, human. The note with it: CDME 500 μM, 16 hours.
Excerpt: as §2, §3, §4, §5

On to `COC(=O)[C@@H](N)CSSC[C@H](N)C(=O)OC` [CDME, cystine dimethyl ester], for which the “Kidney Cystine Concentration” value in series [1] (10,000 mg CDME/kg intraperitoneally, Mouse #3) is 97 nmol cystine/mg protein. Moreover, in series [1] (CDME-injected mice versus controls), the “increase in intralysosomal cystine” value is given as around 100 fold. Also, in series [2], the “effective dosage at which mice died” value was ≥ 5,000 mg CDME/kg body mass. Moreover, the “rate of apoptosis compared with TNF-a alone” value in series [3] (0.25 mM CDME alone) is “equal to that induced by exposure to TNF-a alone”. In addition, in series [3] (CDME, followed by lysis and release from the dish), the “time to maximum rate of apoptosis” value was at most 6 h. Further, the “Annexin V positive cells” value in series [4] (1 h after exposure) came out at 4.3%; in series [4] (3 hours), 9.5%; in series [4] (6 hours), 25.3%. Further, the PI positive cells result in series [4] (1 h after exposure) was “zero”; in series [4] (3 hours), 1.7%; in series [4] (6 hours), 9.1%. Further, the “percent of apoptotic cells (±S.D.)” value amounted to 99.32 ± 0.22% in series [5], 7.78 ± 4.19% in series [6], 44.88 ± 13.52% in series [7] and 6.16 ± 1.80% in series [8].

Source of the values: patent US8222008B2, “Methods and compositions for treating cancer” (The Administrators of The Tulane Educational Fund, priority 2003, dated 2012).
